From publication PMC5123277, “Cloning, functional expression and characterization of a bifunctional 3-hydroxybutanal dehydrogenase /reductase involved in acetone metabolism by Desulfococcus biacutus” (BMC Microbiology, 2016)

Test system: T1, Debia-MDR
T1 construct: gene DebiaDRAFT_04514; full-length, N-terminal His6-tag (pET100, tag kept), E. coli Rosetta 2 (DE3); monomer 38,272 Da predicted, approx. 41 kDa with tag; native about 170 kDa, homotetramer; forward primer […]; (N-terminus MAKMMKT by translation)
Experiment: spectrophotometric NADH consumption at […] nm
Assay type: biochemical, Desulfococcus biacutus
Conditions: reduction direction, NADH co-substrate (0.1 mM in the general assay); 50 uM ZnCl2, 3 mM DTT, anoxic; general assay 25 mM MOPS pH 7.2, 30 °C

Compound `CC(C)=O` [acetone] has a Km of 40 µM.
